Source: ChEMBL document CHEMBL1123071 (J Med Chem, 1985)

System: not given
Assay: not given
Conditions: octanol/water

Compound | logP
NC(N)=S [THIOUREA] | -1.06

Target: T1, Dihydrofolate reductase type 1 (Escherichia coli) (UniProt P00382)
T1 sequence (whole entry): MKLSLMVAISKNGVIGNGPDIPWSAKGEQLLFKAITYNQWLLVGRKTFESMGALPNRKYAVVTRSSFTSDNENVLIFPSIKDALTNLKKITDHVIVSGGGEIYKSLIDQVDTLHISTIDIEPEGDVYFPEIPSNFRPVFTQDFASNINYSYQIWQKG
Assay: Inhibition of dihydrofolate reductase (DHFR) from Escherichia coli.
Conditions: not given

Compound | Log 1/C
CC1(C)N=C(N)N=C(N)N1CCc1ccccc1 | 5.42
CC1(C)N=C(N)N=C(N)N1CCCc1ccccc1 | 7.2
CC1(C)N=C(N)N=C(N)N1Cc1ccccc1 | 4.47
Nc1ncc(Cc2ccc(OC(F)(F)F)cc2)c(N)n1 | 6.57
CC1(C)N=C(N)N=C(N)N1c1ccc(Cl)c(Cl)c1 | 6.8
COc1cccc(N2C(N)=NC(N)=NC2(C)C)c1 | 5.41
CC1(C)N=C(N)N=C(N)N1c1ccc(C(=O)O)cc1 | 2.72
CC1(C)N=C(N)N=C(N)N1c1cccc([N+](=O)[O-])c1 | 5.51
CC1(C)N=C(N)N=C(N)N1c1ccc(C#N)cc1 | 4.04
CC1(C)N=C(N)N=C(N)N1c1cccc(Cc2ccccc2)c1 | 6.55
CC(=O)Nc1ccc(Cc2cnc(N)nc2N)cc1[N+](=O)[O-] | 6.97
CC1(C)N=C(N)N=C(N)N1c1cccc(C(=O)O)c1 | 3.89
COc1ccc(Cc2cnc(N)nc2N)cc1C(F)(F)F | 7.69
CN1C(N)=NC(N)=NC1(C)C | 4.32
CC1(C)N=C(N)N=C(N)N1c1cccc(C(F)(F)F)c1 | 5.64
Nc1ncc(Cc2ccc([N+](=O)[O-])cc2)c(N)n1 | 6.2
CC1(C)N=C(N)N=C(N)N1c1ccc(Cl)cc1 | 6.4
CCOC(=O)c1ccc(N2C(N)=NC(N)=NC2(C)C)cc1 | 4.42
CS(=O)(=O)Oc1cccc(Cc2cnc(N)nc2N)c1 | 6.92
CCCN1C(N)=NC(N)=NC1(C)C | 5.33
CC1(C)N=C(N)N=C(N)N1c1cccc(Cl)c1 | 6.22
CC1(C)N=C(N)N=C(N)N1c1ccccc1 | 5.52
CC1(C)N=C(N)N=C(N)N1c1ccc(-c2ccccc2)cc1 | 5.24

System: not listed separately
Assay: physchem
Conditions: octanol/water

Compound | logP
C#CC [PROPYNE] | 0.94
O=C(O)CBr [BROMOACETIC ACID] | 0.41
CBr [BROMOMETHANE] | 1.19
C[N+](C)(C)CCI | -3
C=COCC | 1.04
Clc1ccccc1 [CHLOROBENZENE] | 2.46
O=c1[nH]cc(I)c(=O)[nH]1 | 0.04
FCF | 0.2
CCN [ETHYLAMINE] | -0.13
NC(N)=O [UREA] | -1.09
COC(C)=O [ACETIC ACID METHYL ESTER] | 0.18
C=C=C | 1.45
Oc1cccc(I)c1 | 3
FC(F)(F)C(F)(F)F | 2
O=C(O)CS [THIOGLYCOLIC ACID] | 0.09
CC(C)N(N=O)C(C)C | 1.63
CF [FLUOROMETHANE] | 0.51
C1=CCOC1 | 0.46
CC(F)F | 0.75
C=C(F)F | 1.24
CC#N [ACETONITRILE] | -0.34
O=Nc1ccccc1 [NITROSOBENZENE] | 2.01
CN(N=O)C(N)=O [N-METHYL-N-NITROSUREA] | -0.16
C=CCC | 2.4
OCC(Cl)(Cl)Cl [TRICHLORETHANOL] | 1.42

Compound | logP
FC(F)(Cl)C(F)(F)Cl [DICHLOROTETRAFLUOROETHANE] | 2.82
C=CC#N [ACRYLONITRILE] | -0.92
NC(=O)CBr | -0.52
CN(C)N=O [N-NITROSODIMETHYLAMINE] | -0.57
ClCCl [METHYLENE CHLORIDE] | 1.25
C#C [ETHYNE] | 0.37
COC [METHOXYMETHANE] | 0.1
Brc1ccccn1 | 1.38
N=C=N [CARBIMIDE] | -0.5
CC(Cl)(Cl)Cl [TRICHLOROETHANE] | 2.49
CC(C)N [ISOPROPYLAMINE] | 0.26
CCSCC [DIETHYL SULFIDE] | 1.95
O=[N+]([O-])c1cccc(I)c1 | 2.94
OCC(F)(F)F [TRIFLUOROETHANOL] | 0.41
CCOCC [ETHER] | 0.77
COc1ccccc1 [ANISOLE] | 2.08
CO [METHYL ALCOHOL] | -0.71
FC(Cl)Cl | 1.55
CS(=O)(=O)c1ccccc1 [METHYLPHENYLSULFONE] | 0.48
O=CO [FORMIC ACID] | -0.54
CNC(C)=O | -1.05
CCCl [ETHYL CHLORIDE] | 1.43
ClC=C(Cl)Cl [TRICHLOROETHYLENE] | 2.29
CCCCCF | 2.33
NC(=O)C(Cl)(Cl)Cl | 1.04

Compound | logP
O=NN(CCF)C(=O)NCCCl | 0.95
C=CC [PROPENE] | 1.77
OCC(Cl)Cl | 0.37
C=C | 1.13
Sc1ccccc1 [BENZENETHIOL] | 2.52
Brc1ccncc1 | 1.54
Nc1cccc(Cl)c1 [3-CHLOROANILINE] | 1.88
CI [IODOMETHANE] | 1.51
CC[N+](=O)[O-] [NITROETHANE] | 0.18
O=[N+]([O-])CCO | -0.42
CC#CC | 1.46
ClC(Cl)=C(Cl)Cl [TETRACHLOROETHYLENE] | 2.6
CSc1ccccc1 | 2.74
O=Nc1ccc(O)c(C(=O)O)c1 | 2.34
CC(O)CN (configuration not stated) | -0.96
CN [METHYLAMINE] | -0.57
FC(F)Cl | 1.08
CCOCCO [2-ETHOXYETHANOL] | -0.54
Cc1cccc([N+](C)(C)C)c1 | -2.31
NC(=O)C(F)(F)F [TRIFLUOROACETAMIDE] | 0.12
C[S+]([O-])c1ccccc1 (configuration not stated) [METHYLPHENYLSULFOXIDE] | 0.55
CCNC(N)=S | -0.66
CCOC(C)=O [ETHYL ACETATE] | 0.7
